For the test, the target named is T1, LTD4 (contraction of isolated guinea pig trachea) (Cavia porcellus, UniProt Q2NNR5).
T1 construct: from tissue; host or cells: isolated tracheal rings of male Hartley guinea pigs
T1 sequence (Q2NNR5 1-340): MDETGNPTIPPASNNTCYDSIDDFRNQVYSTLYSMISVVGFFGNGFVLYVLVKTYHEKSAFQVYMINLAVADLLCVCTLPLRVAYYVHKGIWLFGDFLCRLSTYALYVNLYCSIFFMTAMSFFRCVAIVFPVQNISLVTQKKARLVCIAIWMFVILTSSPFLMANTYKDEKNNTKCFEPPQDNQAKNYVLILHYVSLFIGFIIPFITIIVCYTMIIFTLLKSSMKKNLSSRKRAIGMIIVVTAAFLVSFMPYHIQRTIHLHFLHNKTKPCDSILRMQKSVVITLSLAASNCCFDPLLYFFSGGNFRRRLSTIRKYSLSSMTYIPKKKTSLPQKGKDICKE
Nature of the test: Isolated guinea pig trachea assay, LTD4 antagonist activity. The test is classed as cell-based. The conditions noted are these: read-out: pKB ± S.E. (converted). The protocol: The compounds of the invention are tested in the isolated guinea pig trachea assay to assess their LTD4 antagonist activity. Male Hartley guinea pigs (350-400 g) are euthanized by a blow to the head, the neck is opened and the trachea removed. The trachea is maintained in aerated physiological salt solution, cleared of connective tissue and fat and cut into rings approximately 2 mm in width (usually containing two cartilaginous segments per ring). Two pieces of silk suture are then passed through the lumen of the tracheal ring and are tied around the cartilage, one on each side of the trachealis muscle. The tracheal ring is suspended between a glass hook and a force displacement transducer in a 10 ml organ bath for measurement of isometric tension. Tissues are maintained at 37° C. in aerated (95% O2 /5% CO2) physiological salt solution of the following composition: […] The tracheal rings are maintained at 2 g resting tension and equilibrated for 45 minutes (with frequent washing and readjustment of resting tension). The tracheal rings are first contracted by the addition of carbachol (3×10^-6 M), to determine tissue responsiveness and establish a reference contraction. On attainment of a stable level of contraction (approximately 30 minutes), the tissues are washed several times until baseline tension has been restored and then re-equilibrated for 30 minutes. The tissues are then incubated for 45 minutes with a test antagonist (either 1×10^-6 M or 1×10^-5 M) or 10 μl of an appropriate solvent control (control, non-treated). One tissue in each group serves as the control. Twenty minutes prior to the construction of the LTD4 cumulative concentration-response curve, L-[…]×10^-2 M final bath concentration) is added to inhibit bioconversion of LTD4 to LTE4. Only one LTD4 concentration-response curve is constructed in each tissue. All responses to LTD4 are calculated as a percentage of the reference contraction to carbachol. LTD4 antagonist activity is determined by comparison of the concentration response curves of LTD4 in the presence and absence of antagonist. Assessment of the relative rightward shift of the antagonist treated curve relative to the solvent (control) treated tissue is calculated as a concentration ratio (Eq. A) and used in subsequent calculations to derive an antagonist pKB value (Eqs B&C). In the event that the maximum response to LTD4 is depressed, the EC50 for that particular curve is determined, an "apparent" pKB reported, and the compound reported as "not-competitive."

Setting [1] is: antagonist concentration 1 × 10^-5 M.
Setting [2] is: antagonist concentration 1 × 10^-6 M.

Read-outs that look alike come from different tables or passages of the source.

Turning to `COC(=O)CCSC(SCCC(=O)OC)c1cccc(OCc2csc(-c3ccccc3)n2)c1` [Example 12], the Kb under setting [1] was 724 nM.
As to `COC(=O)CCSC(SCCC(=O)N(C)C)c1cccc(OCc2csc(-c3ccccc3)n2)c1` (centres unmarked) [Example 13, 3-[[[[3-(Dimethylamino)-3-oxopropyl]thio][[(2-phenyl-4-thiazolyl)methoxy]phenyl]methyl]thio]propanoic acid methyl ester], the Kb under setting [2] was 44.7 nM.
Regarding `CN(C)C(=O)CCSC(SCCC(=O)N(C)C)c1cccc(OCc2csc(-c3ccccc3)n2)c1` [Example 14, 3,3'-[[[3-[(2-Phenyl-4-thiazolyl)methoxy]phenyl]methylene]dithio]bis[N,N-dimethylpropanamide]], the Kb under setting [2] was 324 nM.
Turning to `O=C(O)CCSC(SCCC(=O)O)c1cccc(OCc2csc(-c3ccccc3)n2)c1` [Example 15, 3,3'-[[3-[(2-Phenyl-4-thiazolyl)methoxy]phenyl]methylene]dithiobis[propanoic acid]], under setting [1], the Kb is 912 nM.
For the compound `CN(C)C(=O)CCSC(SCCC(=O)O)c1cccc(OCc2csc(-c3ccccc3)n2)c1` (centres unmarked) [Example 16, 3-[[[[3-(Dimethylamino)-3-oxopropyl]thio][3-[(2-phenyl-4-thiazolyl)methoxy]phenyl]methyl]thio]propanoic acid], the Kb under setting [2] is 72.4 nM.

The values are drawn from patent publication US5103014A, “Certain 3,3'-[[[(2-phenyl-4-thiazolyl)methoxy]phenyl]methylene]dithiobis-propano ic acid derivatives” (American Home Products Corporation, priority 1990, dated 1992).
